Measured values taken from patent publication US20220284983A1, “METHODS OF IDENTIFYING CIS-REGULATORY ELEMENTS AND USES THEREOF” (UNIVERSITY HEALTH NETWORK, priority 2019, published 2022).

Tested on: 16 breast cancer cell lines
Test: Drug response of 16 breast cancer cell lines (GRAY dataset, PharmacoGx) compared by presence or absence of CREAM-identified COREs
Type: cell-based
Conditions: >1 = higher sensitivity when CORE present
Text: For example, in methods involving assessing drug sensitivity, for each CORE, average drug sensitivity of the samples with that CORE can be divided to the average drug sensitivity of the samples without that CORE. Then the COREs can be sorted based on the obtained fold changes and COREs with top fold changes can be selected.
Therefore, in some embodiments, the top COREs can be determined as being the COREs with a minimum FDR (False Discovery Rate) after significance after multiple hypothesis correction with dindex>1 (where dindex is a measure of hazard). The FDR indicates the significance or effect of association between existence (in the case of binary features using COREs) or values of that feature and the output value (like drug sensitivity in case of biomarker discovery). The FDR is a corrected p-value for multiple hypothesis. Then the COREs that exist in less than N samples may be further filtered. The value of N may be 2 or more and depends on the particular COREs and the prognosis being predicted. For some studies described herein N was chosen to be 5. As an optional step, the remaining COREs may be combined to result in the CORE signatures that may be used for a multivariate model. In some embodiments, Fold Change may be used instead of FDR in which case for each CORE, the average drug sensitivity of the samples with that CORE can be divided by the average drug sensitivity of the samples without that CORE. Then the COREs can be sorted based on the obtained fold changes and the COREs with the top fold changes can be selected.
CREAM was tested for biomarker discovery, for drug response, using 16 breast cancer cell lines (AU565, BT549, HCC1143, HCC1395, HCC1419, HCC1806, HCC1937, HCC3153, HCC38, HCC70, MDAMB157, MDAMB361, MDAMB453, MX1, T47D, ZR751) with available ATAC-seq profiles and response to PD98059 (a non-ATP competitive MEK inhibitor), and Floxuridine (an antimetabolite agent), as part of the data available in PharmacoGx R package (version 2.0.5) developed by Haibe-Kains laboratory. There are currently no known biomarker for response to PD98059 and Floxuridine.
The columns in each Table are: 1) chromosome regions of the COREs; 2) pvalue; 3) Fold change.
Fold change tells you if presence of a CORE results in higher or lower sensitivity. If Fold Change is great than 1, it means that presence of a CORE results in higher sensitivity and Fold Change is less than 1, it means that presence of a CORE results in lower sensitivity.

SMILES: O=c1[nH]c(=O)n([C@H]2C[C@H](O)[C@@H](CO)O2)cc1F [Floxuridine]
- Fold change (Floxuridine sensitivity with vs without CORE chr2-36473442-37039510): 0.6674
- Fold change (Floxuridine sensitivity with vs without CORE chr3-69004922-69292456): 0.6617
- Fold change (Floxuridine sensitivity with vs without CORE chr4-99547495-99584170): 0.5406
- Fold change (Floxuridine sensitivity with vs without CORE chr5-167696005-167914094): 0.629
- Fold change (Floxuridine sensitivity with vs without CORE chr6-16577121-16782003): 0.5777
- Fold change (Floxuridine sensitivity with vs without CORE chr15-60619092-60725509): 0.7009
- Fold change (Floxuridine sensitivity with vs without CORE chr16-29801700-30154789): 1.653
- Fold change (Floxuridine sensitivity with vs without CORE chr16-67184267-67407032): 2.017
- Fold change (Floxuridine sensitivity with vs without CORE chr17-21102597-21252333): 0.699

SMILES: COc1cccc(-c2cc(=O)c3ccccc3o2)c1N [PD98059]
- Fold change (PD98059 sensitivity with vs without CORE chr2-75602732-75966190): 0.5231
- Fold change (PD98059 sensitivity with vs without CORE chr6-126063660-126362254): 0.4327
- Fold change (PD98059 sensitivity with vs without CORE chr7-54328557-56189467): 0.5362
- Fold change (PD98059 sensitivity with vs without CORE chr9-75681937-75835570): 0.538
- Fold change (PD98059 sensitivity with vs without CORE chr9-103348375-103365047): 0.4902
- Fold change (PD98059 sensitivity with vs without CORE chr9-130150616-131799038): 1.906
- Fold change (PD98059 sensitivity with vs without CORE chr9-139257512-140211180): 1.864
- Fold change (PD98059 sensitivity with vs without CORE chr11-694436-876984): 2.17
- Fold change (PD98059 sensitivity with vs without CORE chr11-34183346-34607941): 1.859
- Fold change (PD98059 sensitivity with vs without CORE chr15-40330702-40453457): 2.206
- Fold change (PD98059 sensitivity with vs without CORE chr16-4965308-5008584): 1.983
- Fold change (PD98059 sensitivity with vs without CORE chr16-53766187-53861966): 0.4902
- Fold change (PD98059 sensitivity with vs without CORE chr17-21102597-21252333): 0.5247
- Fold change (PD98059 sensitivity with vs without CORE chr19-45765981-46636866): 1.904
- Fold change (PD98059 sensitivity with vs without CORE chr20-9819285-10752699): 0.5253
